Test results published in PMC2639705, “Two Chromogranin A-Derived Peptides Induce Calcium Entry in Human Neutrophils by Calmodulin-Regulated Calcium Independent Phospholipase A2” (PLoS ONE, 2009).
Entries after “also recorded” stand apart in the source; their conditions may differ. Read-outs that look alike come from different tables or passages of the source. Positions of bridges follow the written chain, without caps; N, C: chain ends. No end group written: not given here. rhodamine = not defined here

What was measured:
[1] = test system: PMNs; assay: Time-lapse intracellular Ca2+ imaging (Fura-2), with SOC/ARC blockers and iPLA2/PLA2 inhibitors; type: cell-based, human; conditions: for Ca2+ influx induced by CaM antagonists: 30 µM W7 or 1 µM CMZ
[2] = test system: SOCs; design: method as in PMID 15280576, PMID 15951181, PMID 17003039; conditions: ref [42]–[44]; cited from earlier work
[3] = test system: iPLA2; assay: iPLA2 activity assay (modified cPLA2 assay kit); type: biochemical, human; conditions: 20 µM CHR, 20 µM CAT, 1 µM CMZ or 50 µM W7, 30 min at 37°C; absorbance 405 nm per mg protein; two experiments in triplicate
Protocol: C) iPLA2 activity assay: Stimulation of iPLA2 activity after treatment by 20 µM CHR or 20 µM CAT for 30 min at 37°C and comparison with the effects of two CaM-binding factors (1 µM CMZ, 50 µM W7) and one iPLA2 inhibitor (25 µM BEL). Activity of iPLA2 is expressed as the absorbance (Abs/mg of protein) at λ405 nm.
PMNs (3.10^8) were collected, sonicated 3 times for 10 s with a 15 s break between cycles, and centrifuged at 15,000× g for 20 min at 4°C. The supernatant was removed and kept on ice. After determination of the protein concentration (Bradford assay), iPLA2 activity measurement was obtained in presence of different peptide concentrations using the cPLA2 assay kit, according to the modified method previously reported (cPLA2 assay kit, Caymen chemical), [36]. Results were from two similar experiments, each performed in triplicates.

[4] = test system: human PMNs; assay: Flow cytometry, Ca2+ influx in Fluo-3-loaded PMNs; type: cell-based; conditions: for Ca2+ influx: human PMNs, Fluo-3, 20 µM peptide (or tryptic digest of 20 µM CAT/CHR), presence of extracellular Ca2+ (1 mM; 1.1 mM CaCl2 at t = 620 s), at least triplicates
[5] = test system: PMNs; assay: HPLC and NanoLC-MS/MS proteomic analysis of PMN secretions induced by CHR and CAT; conditions: trypsin, protein threshold 1 peptide score > 52 or at least 2 peptides with score >20
[6] = test system: pancreatic beta-cells; conditions: ref [2]; cited from earlier work
Description: Chromogranin A (CgA) is a well-studied member of the chromogranin/secretogranin family, present in secretory cells of the nervous, endocrine and immune systems. CgA was the first chromogranin to be characterized as an acidic protein co-stored and co-released with the catecholamine hormones from the chromaffin cells of the adrenal medulla. […] Numerous endogenous cl ...

[7] = test system: PMNs; assay: Confocal microscopy, uptake of rhodamine-labelled peptides into PMNs; type: cell-based, human; conditions: 20 µM rhodamine-labelled peptide, 2 min, PBS pH 7.4, room temperature, confocal microscopy after paraformaldehyde fixation
Protocol: PMNs (1.10^6/mL) were incubated 2 min at room temperature (RT) with rhodamine-labelled peptides (20 µM) in Phosphate Buffered Saline consisting of 10.5 mM KH2PO4, 30 mM Na2HPO4, 0.154 M NaCl, pH 7.4, washed and subsequently centrifuged by cytospins of 1–2.10^5 isolated PMNs onto glass slides (300 rpm, 10 min, RT). Cytospins were fixed with 4% (v/v) paraformaldehyde in PBS at RT for 20 min, then incubated with Draq-5 (dilution1∶500, Biostatus Limited., Leicestershire, UK) for 15 min. Stained cells were monitored with a Zeiss LSM 510 laser scanning microscope (Zeiss, Iena, Germany) equipped with a Planapo oil immersion objective (×63, numerical aperture 1.4).

[8] = test system: calmodulin (CaM); assay: Surface Plasmon Resonance, CaM binding to immobilized peptides; conditions: pH 6.5
Protocol: Figure 5 Interaction of CHR and CAT with calmodulin (CaM). A) Fluorescence confocal microscopy of PMNs after incubation during 120 s with 20 µM rhodamine-labeled peptides (Rho-CHR or Rho-CAT). Control peptide: 20 µM rhodamine labeled Hippocampal Cholinergic Neurostimulating Peptide (Rho-HCNP). The PMNs nuclei were labeled with Draq-5. B) Alignment of the CHR and CAT sequences with two CaM binding motifs 1-8-14 B and 1-5-10. The alignment has been obtained manually so that hydrophobic residues occupy invariant positions shown with boldface letters. The net positive charge is also indicated. C) (1) Interactions between CaM, CAT and CHR by Surface Plasmon Resonance (SPR) Peptides were immobilized on a CM5 Biacore chip using amine-coupling chemistry. CaM (5 µM) was added at arrow and allowed to stabilize for 10 min. Dissociation by washing was recorded for the following 10 min. All measurements were performed at 20°C. The resulting sensorgrams were analyzed using BIAevaluation Software. (2) Calmodulin-Affinity Chromatography of CHR and CAT. The retained and eluted peptides were immunodetected by dot blot with anti-CHR (monoclonal anti-CgA47–68) and anti-CAT (polyclonal anti-CgA344–364). […]
Experiments were conducted on a Biacore 3000™ (GE Healthcare) and peptides were immobilized on a CM5 Biacore chip using amine-coupling. […] Sensorgrams were analyzed by using BIAevaluation Software.

In the case of NCCOB(c1ccccc1)c1ccccc1 [2-APB, 2-aminoethyl diphenylborinate], the “inhibition of AA-induced Ca2+ influx” value [1] is reported as “insensitive to 2-APB”, the “inhibition of CAT-induced Ca2+ entry” value [1] is reported as “completely blocked the entry of extracellular Ca^2+; also recorded: inhibits completely the calcium entry; also recorded: abolished the transient Ca^2+ influx induced by CHR or CAT similarly to 2-APB” and the “inhibition of CHR-induced Ca2+ entry” value [1] is reported as “completely blocked the entry of extracellular Ca^2+; also recorded: inhibits completely the calcium entry; also recorded: abolished the transient Ca^2+ influx induced by CHR or CAT similarly to 2-APB”. For the same compound, the “suppression of CMZ-induced Ca2+ influx” value [1] was “significantly suppressed” and the “suppression of W7-induced Ca2+ influx” value [1] was “significantly suppressed”.
For CCCCC/C=C\C/C=C\C/C=C\C/C=C\CCCC(=O)O [AA, Arachidonic Acid], the “Ca2+ influx induced by AA” value ([1]; PMNs, Fura-2, 50 µM AA, 2.5 mM CaCl2) was “calcium influx induced by 50 µM AA”.
With O=C1O/C(=C/Br)CCC1c1cccc2ccccc12 (stereo not shown) [BEL, Bromoenol lactone] the “inhibition of CAT-induced Ca2+ entry” value ([1]; PMNs, Fura-2, 20 µM CAT, 2.5 mM CaCl2, 100 µM 2-APB (2 min), 25 µM BEL (30 min) or 10 µM BPB (10 min) before peptide) was “abolished the transient Ca^2+ influx”, the “inhibition of CHR-induced Ca2+ entry” value ([1]; PMNs, Fura-2, 20 µM CHR, 2.5 mM CaCl2, 100 µM 2-APB (2 min), 25 µM BEL (30 min) or 10 µM BPB (10 min) before peptide) was “abolished the transient Ca^2+ influx” and the “suppression of CMZ-induced Ca2+ influx” value ([1]; PMNs, Fura-2, 37°C, 1 µM CMZ, 25 µM BEL (30 min), 10 µM BPB (10 min) or 100 µM 2-APB (2 min) before) was “significantly suppressed”. For the same compound, the “suppression of W7-induced Ca2+ influx” value ([1]; PMNs, Fura-2, 37°C, 30 µM W7, 25 µM BEL (30 min), 10 µM BPB (10 min) or 100 µM 2-APB (2 min) before) was “significantly suppressed”.
In the case of Clc1ccc(C(c2ccc(Cl)cc2)n2cc[n+](CC(OCc3ccc(Cl)cc3Cl)c3ccc(Cl)cc3Cl)c2)cc1 (stereo not shown) [CMZ, calmidazolium], the “Ca2+ influx induced by CaM antagonists” value ([1]; PMNs, Fura-2, 37°C) is given as “induced longer lasting rises in influx”, the “direct activation of SOCs” value [2] is given as “may directly activate SOCs without the release of intracellular Ca^2+ stores” and the “stimulation of iPLA2 enzymatic activity in PMNs” value [3] is given as “stimulated”.
In the case of [Cl][Gd]([Cl])[Cl] [Gd^3+, gadolinium chloride], the “inhibition of AA-induced Ca2+ influx” value [1] is reported as “inhibited by gadolinium chloride (Gd^3+)”.
With NCCCCCCNS(=O)(=O)c1cccc2c(Cl)cccc12 [W7, N-(6-aminohexyl)-5-chloro-l-naphthalenesulfonamide] the “Ca2+ influx induced by CaM antagonists” value ([1]; PMNs, Fura-2, 37°C) was “induced longer lasting rises in influx” and the “stimulation of iPLA2 enzymatic activity in PMNs” value [3] was “stimulated”.
In the case of “ALQGAKERTHQQ [CgA65–76, the natural peptide CgA65–76 (…)]”, the “Ca2+ influx” value [4] is reported as “failed to affect the Ca^2+ influx”.
With “CIVEVISDTLSKPSPMPVSKEC (disulfide 1-22 (inferred)) [CgA17–40]” the “Ca2+ influx” value [4] was “failed to affect the Ca^2+ influx”.
With “Castestatin (SSMKLSFRARAYGFRGPGPQL; Catestatin; UniProt P10645 370-390, looked up)” the “Protein identified in PMN secretion (Protein name)” value (“Protein identified in PMN secretion” for short) ([5]; sample Castestatin_1, Mascot) was “Protein S100-A9 - Homo sapiens (Human); also recorded: Protein S100-A12 - Homo sapiens (Human)”, the “Protein identified in PMN secretion” value ([5]; sample Castestatin_6, Mascot) was “Actin, cytoplasmic 1 - Homo sapiens (Human)” and the “Protein identified in PMN secretion” value ([5]; sample Castestatin_7, Mascot) was “Actin, cytoplasmic 1 - Homo sapiens (Human)”. The “Protein identified in PMN secretion” value ([5]; sample Castestatin_8, Mascot) was “Hemoglobin subunit alpha - Homo sapiens (Human)”, the “Protein identified in PMN secretion” value ([5]; sample Castestatin_9, Mascot) was “Hemoglobin subunit beta - Homo sapiens (Human)” and the “Protein identified in PMN secretion” value ([5]; sample Castestatin_10, Mascot) was “High mobility group protein B2 - Homo sapiens (Human); also recorded: Hemoglobin subunit beta - Homo sapiens (Human)”. The “Protein identified in PMN secretion” value ([5]; sample Castestatin_11, Mascot) was “Heterogeneous nuclear ribonucleoproteins A2/B1 - Homo sapiens (Human); also recorded: Phosphatidylethanolamine-binding protein 1 - Homo sapiens (Human); also recorded: Heterogeneous nuclear ribonucleoprotein A1 - Homo sapiens (Human); also recorded: Filamin-A - Homo sapiens (Human); also recorded: Low affinity immunoglobulin gamma Fc region receptor III-B precursor - Homo sapiens (Human); also recorded: Alpha-1-acid glycoprotein 1 precursor - Homo sapiens (Human); also recorded: Haptoglobin precursor [Contains: Haptoglobin alpha chain; Haptoglobin beta chain] - Homo sapiens (Human); also recorded: SH3 domain-binding glutamic acid-rich-like protein - Homo sapiens (Human)”.
For “NSPMNKGDTEVMK [CgA4–16, peptide derived from the N-terminal CgA domain (…)]”, the “Ca2+ influx” value [4] was “failed to affect the Ca^2+ influx”.
In the case of “Pancreastatin (AAPGWPEDGAGKMGAEEAKPPEGKGEWAHSRQEEEEMARAPQVLFRG; Pancreastatin; UniProt P05059 266-312, looked up) [CgA-derived peptide (bCGA248–293)]”, the “effect on glucose-evoked insulin secretion” value [6] is given as “able to inhibit the glucose-evoked insulin secretion from pancreatic beta-cells”.
With “rhodamine-labeled CAT: CAT conjugated with 5(6)-carboxytetramethyl rhodamine at the N-terminal extremity ({5(6)‑carboxytetramethylrhodamine}-SSMKLSFRARAYGFRGPGPQL; UniProt P10645 370-390, looked up)” the “detection in PMN cytoplasm (uptake)” value [7] was “detected in the cytoplasm”.
For “rhodamine-labeled Hippocampal Cholinergic Neurostimulating Peptide (HCNP): control peptide, rhodamine-labeled Hippocampal Cholinergic Neurostimulating Peptide (HCNP) (rhodamine-PVDLSKWSGPL; reading uncertain; UniProt P30086 2-12, looked up)”, the “Ca2+ influx induced by labelled control peptide” value ([4]; PMNs, data not shown, method and concentration not stated) was “unable to induce Ca^2+ influx into PMNs” and the “detection in PMN cytoplasm (uptake)” value [7] was “not detected in the cytoplasm”.
With “scrambled CAT: scrambled CAT peptide (SLPRRQLPSSAGMRGGKFAYF)” the “interaction with CaM by SPR” value [8] was “inactive”.
